# Experimental data taken from patent US7112579B2, “26,27-Homologated-20-EPI-2-alkyl-19-nor-vitamin D compounds” (Wisconsin Alumni Research Foundation, priority 1997, dated 2006).
# Entries after “also recorded” stand apart in the source; their conditions may differ.
# Legend:
# [1] = tested on: human promyelocyte HL-60 cells; test: Differentiation of HL-60 promyelocytes into monocytes (NBT reduction); assay type: cell-based; settings: for induction of differentiation of HL-60 cells to monocytes, in words: FIGS. 2, 4, 6, comparison in words; for HL-60 differentiation, more active than corresponding 2β-isomer: 12 vs 13, 18 vs 19
# Source text: In the next assay, the cellular activity of the synthesized compounds was established by studying their ability to induce differentiation of human promyelocyte HL-60 cells into monocytes.
# [2] = target: T1, porcine intestinal vitamin D receptor (Sus scrofa, UniProt A3RGC1); test: Competitive binding to the porcine intestinal vitamin D receptor ([3H]-1,25-(OH)2-D3 displacement); parameters: species or system pig; settings: for ability to bind the porcine intestinal vitamin D receptor, in words: FIGS. 1, 3 and 5, comparison in words
# T1 construct: from tissue; host or cells: porcine intestine
# T1 sequence (A3RGC1 1-427): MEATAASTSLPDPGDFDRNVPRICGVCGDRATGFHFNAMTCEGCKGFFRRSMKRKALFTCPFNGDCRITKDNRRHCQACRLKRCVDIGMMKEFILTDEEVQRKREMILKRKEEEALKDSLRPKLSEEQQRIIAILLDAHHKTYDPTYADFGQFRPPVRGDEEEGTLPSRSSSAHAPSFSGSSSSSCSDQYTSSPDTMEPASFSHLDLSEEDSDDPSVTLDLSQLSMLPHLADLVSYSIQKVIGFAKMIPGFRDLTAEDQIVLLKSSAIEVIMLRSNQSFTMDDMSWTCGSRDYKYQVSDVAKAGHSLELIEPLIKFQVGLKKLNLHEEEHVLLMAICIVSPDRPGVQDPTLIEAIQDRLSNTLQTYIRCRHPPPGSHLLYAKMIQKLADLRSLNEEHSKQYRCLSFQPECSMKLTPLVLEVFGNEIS
# [3] = tested on: intestinal calcium transport; test: Support of intestinal calcium transport in vitamin D-deficient rats on a low-calcium diet (3 weeks), 7 daily i.p. doses; assay type: in vivo, rat; settings: Table 9 panel 2
# [4] = tested on: bone calcium mobilization (serum Ca); test: Bone calcium mobilization (serum Ca) in vitamin D-deficient rats on a low-calcium diet (3 weeks), 7 daily i.p. doses; assay type: in vivo, rat; settings: Table 9 panel 2
# [5] = tested on: serum calcium (bone calcium mobilization); test: Serum calcium (bone calcium mobilization), chronic doses 7 days i.p., vitamin D-deficient rats; assay type: in vivo, rat; settings: for calcemic activity (intestinal calcium transport and bone calcium mobilization), in words: chronic doses, rats; for bone calcium mobilization (serum calcium) activity, in words: chronic 7 days, 130 and/or 260 pmol/day
# Method: (§1) Male weanling rats were obtained from Sprague Dawley Co. (Indianapolis, Ind.) and fed a 0.47% calcium, 0.3% phosphorus vitamin D-deficient diet for 1 week and then given the same diet containing 0.02% calcium, 0.3% phosphorus for 2 weeks. During the last week they were given the indicated dose of compound by intraperitoneal injection in 0.1 ml 95% propylene glycol and 5% ethanol each day for 7 days. The control animals received only the 0.1 ml of 95% propylene glycol, 5% ethanol. Twenty-four hours after the last dose, the rats were sacrificed and intestinal calcium transport was determined by everted sac technique as previously described and serum calcium determined by atomic absorption spectrometry on a model 3110 Perkin Elmer instrument (Norwalk, Conn.). There were 5 rats per group and the values represent mean±SEM.
# as §1, with “With respect to the data in Tables 3 and 4, male” for “Male”, “atormic” for “atomic”
# [6] = tested on: intestinal calcium transport; test: Intestinal calcium transport (everted sac), chronic doses 7 days i.p., vitamin D-deficient rats; assay type: in vivo, rat; settings: for intestinal calcium transport activity, in words: chronic 7 days, 130 and/or 260 pmol/day
# Method: as §1
# as §1, with “With respect to the data in Tables 3 and 4, male” for “Male”, “atormic” for “atomic”
# [7] = Table 8, analog average ED50 / ED50 for 1α,25-(OH)2D3
# [8] = Table 5, 130 pmol/day/7 days i.p., listed as 2β-Hydroxymethyl-19-nor-20(S)-1,25-(OH)2D3
# [9] = Table 5, 260 pmol/day/7 days i.p., listed as 2β-Hydroxymethyl-19-nor-20(S)-1,25-(OH)2D3
# [10] = Table 5, 130 pmol/day/7 days i.p.
# [11] = Table 5, 260 pmol/day/7 days i.p.
# [12] = Table 3, 130 pmol/day/7 days i.p., mean±SEM
# [13] = Table 3, 260 pmol/day/7 days i.p., mean±SEM
# [14] = Table 4, 130 pmol/day/7 days i.p., mean±SEM, listed as 2β-Methyl-19-nor-1,25-(OH)2D3
# [15] = Table 4, 260 pmol/day/7 days i.p., mean±SEM, listed as 2β-Methyl-19-nor-1,25-(OH)2D3
# [16] = listed as 2β-methyl-19-nor-1,25-(OH)2D3
# [17] = Table 4, 130 pmol/day/7 days i.p., mean±SEM
# [18] = Table 4, 260 pmol/day/7 days i.p., mean±SEM
smiles,measurement,setting,value
"CC1[C@H](O)CC(=C/C=C2\CCC[C@@]3(C)C2CCC3[C@@H](C)CCCC2(O)CCCC2)C[C@H]1O (stereo partly drawn) [Compound 49, 20(S)-1α,25-Dihydroxy-26,27-dimethylene-2β-methyl-19-norvitamin D3]",HL-60 Differentiation Activity ratio,[1]; [7],0.08
same,HL-60 Differentiation ED50,"[1]; Table 8, concentration inducing 50% maturation (NBT)",0.32 nM
same,VDR Binding ratio,[2]; [7],2.6
same,EC50,"[2]; Table 8, concentration for 50% displacement of radiolabeled 1α,25-(OH)2D3, read-out: VDR Binding ED50",2.3 nM
same,Ca Transport S/M (mean ± SEM),[3]; 65 pmol daily x 7 i.p.,4.9 ± 0.6^d^1 S/M
same,Ca Transport S/M (mean ± SEM),[3]; 260 pmol daily x 7 i.p.,5.4 ± 0.7^d^2 S/M
same,Serum Ca (mean ± SEM),[4]; 65 pmol daily x 7 i.p.,5.8 ± 0.2^d^1
same,Serum Ca (mean ± SEM),[4]; 260 pmol daily x 7 i.p.,9.5 ± 0.1^d^2
"CC(CCCC(C)(C)O)C1CCC2C(=CC=C3CC(O)C(CO)C(O)C3)CCCC21C [Compound 23, 20(S)-1α,25-Dihydroxy-2β-(hydroxymethyl)-19-norvitamin D3]","induction of differentiation of HL-60 cells to monocytes, in words",[1],high potency in cellular differentiation
same,"receptor binding, less potent than 22 and 1α,25-(OH)2D3","[2]; relative to 22 and 1α,25-(OH)2D3",6–8 ×
same,Serum Calcium,[5]; [8],3.6 ± 0.1 mg/100 ml
same,Serum Calcium,[5]; [9],3.5 ± 0.2 mg/100 ml
same,"calcemic activity (intestinal calcium transport and bone calcium mobilization), in words",[5],relatively inactive; also recorded: lack of calcemic activity
same,Intestinal Calcium Transport (S/M),[6]; [8],3.5 ± 0.7 S/M
same,Intestinal Calcium Transport (S/M),[6]; [9],3.5 ± 0.3 S/M
"CC(CCCC(C)(C)O)C1CCC2C(=CC=C3CC(O)C(CO)C(O)C3)CCCC21C [Compound 22, 2α-Hydroxymethyl-19-nor-20(S)-1,25-(OH)2D3]","induction of differentiation of HL-60 cells to monocytes, in words",[1],high potency in cellular differentiation
same,"ability to bind the porcine intestinal vitamin D receptor, in words",[2],"almost equivalent to 1α,25-(OH)2D3"
same,Serum Calcium,[5]; [10],4.0 ± 0.1 mg/100 ml
same,Serum Calcium,[5]; [11],3.9 ± 0.1 mg/100 ml
same,"calcemic activity (intestinal calcium transport and bone calcium mobilization), in words",[5],relatively inactive; also recorded: lack of calcemic activity
same,Intestinal Calcium Transport (S/M),[6]; [10],5.0 ± 0.3 S/M
same,Intestinal Calcium Transport (S/M),[6]; [11],5.8 ± 0.4 S/M
"CC(CCCC(C)(C)O)C1CCC2C(=CC=C3CC(O)C(C)C(O)C3)CCCC21C (stereo not drawn) [Compound 18, 2α-methyl-19-nor-20S-1,25-(OH)2D3]","HL-60 differentiation, more active than corresponding 2β-isomer",[1],10 times
same,"induction of differentiation of HL-60 cells to monocytes, in words",[1],extremely potent
same,"ability to bind the porcine intestinal vitamin D receptor, in words",[2],"about as active as 1α,25-(OH)2D3"
same,Serum Calcium,"[5]; Table 3, 130 pmol/day/7 days i.p., mean±SEM, listed as 2α-Methyl-19-nor-20(S)-1,25-(OH)2D3",8.3 ± 0.7 mg/100 ml
same,Serum Calcium,"[5]; Table 3, 130 pmol/day/7 days i.p., mean±SEM, listed as 2α-methyl-19-nor-20S-1,25-(OH)2D3",8.3±0.7 mg/100 ml
same,Serum Calcium,"[5]; Table 3, 260 pmol/day/7 days i.p., mean±SEM, listed as 2α-Methyl-19-nor-20(S)-1,25-(OH)2D3",10.3 ± 0.11 mg/100 ml
same,Serum Calcium,"[5]; Table 3, 260 pmol/day/7 days i.p., mean±SEM, listed as 2α-methyl-19-nor-20S-1,25-(OH)2D3",10.3±0.11 mg/100 ml
same,"bone calcium mobilization (serum calcium) activity, in words",[5],much higher than that of the native hormone
same,Intestinal Calcium Transport (S/M),[6]; [12],12.9 ± 1.9 S/M
same,Intestinal Calcium Transport (S/M),[6]; [13],8.4 ± 1.1 S/M
same,"intestinal calcium transport activity, in words",[6],significant change in intestinal calcium transport at both the 260 pmol and the 130 pmol dose levels
"C[C@H](CCCC(C)(C)O)[C@H]1CC[C@H]2/C(=C/C=C3C[C@@H](O)C(CO)[C@H](O)C3)CCC[C@]12C (stereo partly drawn) [Compound 20, 1α,25-Dihydroxy-2α-(hydroxymethyl)-19-norvitamin D3]","ability to bind the porcine intestinal vitamin D receptor, in words",[2],about the same binding affinity as 23
"CC1C(O)CC(=CC=C2CCC[C@]3(C)[C@@H]([C@@H](C)CCCC(C)(C)O)CC[C@@H]23)CC1O (stereo partly drawn) [Compound 19, 20(S)-1α,25-Dihydroxy-2β-methyl-19-nor-vitamin D3]","induction of differentiation of HL-60 cells to monocytes, in words",[1],high potency in cellular differentiation
same,"ability to bind the porcine intestinal vitamin D receptor, in words",[2],"about as active as 1α,25-(OH)2D3"
same,Serum Calcium,[5]; [12],4.4 ± 0.1 mg/100 ml
same,Serum Calcium,[5]; [13],4.4 ± 0.1 mg/100 ml
same,"bone calcium mobilization (serum calcium) activity, in words",[5],"little, if any, bone mobilization activity"
same,"calcemic activity (intestinal calcium transport and bone calcium mobilization), in words",[5],lack of calcemic activity
same,Intestinal Calcium Transport (S/M),[6]; [12],2.9 ± 0.3 S/M
same,Intestinal Calcium Transport (S/M),[6]; [13],3.8 ± 0.1 S/M
same,"intestinal calcium transport activity, in words",[6],"little, if any, intestinal calcium transport activity"
"CC1[C@H](O)CC(=C/C=C2\CCC[C@]3(C)[C@@H]([C@H](C)CCCC(C)(C)O)CC[C@@H]23)C[C@H]1O (stereo partly drawn) [Compound 13, 1α,25-Dihydroxy-2β-methyl-19-nor-vitamin D3]","induction of differentiation of HL-60 cells to monocytes, in words",[1],high potency in cellular differentiation
same,"receptor binding, less effective than 1α,25-(OH)2D3","[2]; relative to 1α,25-(OH)2D3",39 fold
same,Serum Calcium,[5]; [14],4.1 ± 0.1 mg/100 ml
same,Serum Calcium,[5]; [15],3.8 ± 0.2 mg/100 ml
same,"bone calcium mobilization (serum calcium) activity, in words",[5]; [16],"little, if any"
same,"calcemic activity (intestinal calcium transport and bone calcium mobilization), in words",[5],lack of calcemic activity
same,Intestinal Calcium Transport (S/M),[6]; [14],4.4 ± 0.8 S/M
same,Intestinal Calcium Transport (S/M),[6]; [15],3.1 ± 0.9 S/M
same,"intestinal calcium transport activity, in words",[6]; [16],"little, if any"
"CC(CCCC(C)(C)O)C1CCC2C(=CC=C3CC(O)C(CO)C(O)C3)CCCC21C (stereo not drawn) [Compound 21, 1α,25-Dihydroxy-2β-(hydroxymethyl)-19-norvitamin D3]","receptor binding, less effective than 2α-hydroxymethyl analog 20",[2]; relative to 20,ca. 8 times
"CC1[C@H](O)CC(=C/C=C2\CCC[C@]3(C)[C@@H]([C@H](C)CCCC(C)(C)O)CC[C@@H]23)C[C@H]1O (stereo partly drawn) [Compound 12, 2α-methyl-19-nor-1,25-(OH)2D3]","HL-60 differentiation, more active than corresponding 2β-isomer",[1],100 times
same,"induction of differentiation of HL-60 cells to monocytes, in words",[1],extremely potent
same,"ability to bind the porcine intestinal vitamin D receptor, in words",[2],"about as active as 1α,25-(OH)2D3"
same,Serum Calcium,[5]; [17],4.8 ± 0.2 mg/100 ml
same,Serum Calcium,[5]; [18],5.8 ± 0.5 mg/100 ml
same,"bone calcium mobilization (serum calcium) activity, in words",[5],relatively strong bone calcium mobilization at both dose levels
same,Intestinal Calcium Transport (S/M),[6]; [17],4.3 ± 1.0 S/M
same,Intestinal Calcium Transport (S/M),[6]; [18],5.3 ± 1.3 S/M
same,"intestinal calcium transport activity, in words",[6],some intestinal calcium transport activity
